The test system of experiment [1] is SARS-CoV-2. Kind of experiment: Antiviral activity against nirmatrelvir-resistant SARS-CoV-2 harboring rL50F/E166A/L167F mutant infected in human Caco-2 cells expressing hTMPRSS/hACE2 incubated for 48 hrs in presence of CP-100356 by crystal violet staining based analysis. It counts as functional, organism-based, Severe acute respiratory syndrome coronavirus 2.

Experiment [2] has as its system SARS-CoV-2. As to the kind of experiment: Selectivity ratio of EC50 for nirmatrelvir-resistant SARS-CoV-2 harboring rL50F/E166A/L167F mutant infected in human Caco-2 cells expressing hTMPRSS/hACE2 to EC50 for wild-type SARS-CoV-2 WA1 infected in human Caco-2 cells expressing hTMPRSS/hACE2. It counts as functional.

For `CC(C)(C)[C@H](NC(=O)C(F)(F)F)C(=O)N1C[C@H]2[C@@H]([C@H]1C(=O)N[C@H](C#N)C[C@@H]1CCNC1=O)C2(C)C`, in the experiment on SARS-CoV-2 [1], the EC50 – broadly, the concentration that produces a half-maximal response – was determined as 501 nM. The “Ratio EC50” value with SARS-CoV-2 [2] was 14.8.

These data come from ChEMBL document CHEMBL6092219, “Structure-Based Design of Covalent SARS-CoV-2 Papain-like Protease Inhibitors” (J Med Chem, 2024).
